Results: patent US20190175557A1, “COMPOUNDS USEFUL FOR DECREASING INTERFERON LEVEL” (priority 2016, published 2019)

Key:
[1] = tested on: human Flu-activated primary PBMC; test: cells; assay type: cell-based; settings: read-out: EC50
HIV-stimulated pDC = test: TRAIL relocalization to the membrane of HIV-stimulated pDC (3D microscopy); assay type: cell-based, human
Protocol: (§1) Cells were then incubated with anti-CXCR4 antibody (Biolegend, San Diego, Calif.) in saturation buffer PBS-BSA 0.5% for membrane staining or in permeabilizing buffer containing 1% saponin with monoclonal antibody anti-TRAIL (Biolegend, San Diego, Calif., USA). […] Nucleus was stained using DAPI (Molecular Probes, Paisley, UK). Slides were mounted with Fluoromount-G (eBioscience, CA, USA) and scanned with a Nikon Eclipse 90i Upright microscope (Nikon Instruments Europe, Badhoevedorp, The Netherlands) using a 100× Plan Apo VC piezo objective (NA 1.4) and Chroma bloc filters (ET-DAPI, ET-GFP) and were subsequently deconvoluted with a Meinel algorithm and 8 iterations and analyzed using Metamorph® (MDS Analytical Technologies, Winnersh, UK). TRAIL/DAPI/Overlay/Confocal plane: Representative 2D focal plan. Overlay with bright: Bright. Reconvolution overlays: 2D projections of the maximum intensity pixels along the Z-axis.
7 pictures were taken from each slide for each Z section framing the nucleus. Quantification of the colocalization in the cytoplasm of purified pDC using Mander's Coefficient was obtained after analyze by JACoP pluging in ImageJ.

CXCR4 [2] = target: T1, CXCR4 (Homo sapiens, UniProt P61073); test: CXCR4 internalization and co-localization in pDC (microscopy); assay type: cell-based; settings: cells incubated with CB, compared to untreated cells
T1 sequence (P61073 whole entry): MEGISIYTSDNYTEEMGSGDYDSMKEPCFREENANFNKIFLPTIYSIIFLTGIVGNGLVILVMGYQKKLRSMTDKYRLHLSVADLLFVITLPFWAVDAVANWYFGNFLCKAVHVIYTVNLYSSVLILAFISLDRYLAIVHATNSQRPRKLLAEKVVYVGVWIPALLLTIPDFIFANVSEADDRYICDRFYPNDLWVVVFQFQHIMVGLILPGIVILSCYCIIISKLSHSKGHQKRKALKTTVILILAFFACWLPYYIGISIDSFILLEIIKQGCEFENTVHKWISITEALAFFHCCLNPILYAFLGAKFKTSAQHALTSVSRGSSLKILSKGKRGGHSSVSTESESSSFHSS
Protocol: as §1, with “Reconvolution overlays: 2D projections of the maximum intensity pixels along the Z-axis.” left out
In other cases, cells were cultured overnight in media alone then were washed in ice-cold PBS-BSA 0.2% and stained with CXCR4 antibody (R&D Systems) for 1 hour at 4° C. […] Data are expressed as the mean percentage ±SEM mean channel fluorescence intensity (MFI) values for residual surface expression and intracellular staining. […]
7 pictures were taken from each slide for each Z section framing the nucleus. Quantification of the colocalization in the cytoplasm of purified pDC using Mander's Coefficient was obtained after analyze by JACoP pluging in ImageJ. […]

H4R = H4R (Homo sapiens, UniProt Q9H3N8); assay type: cell-based
Sequence of H4R (Q9H3N8 whole entry): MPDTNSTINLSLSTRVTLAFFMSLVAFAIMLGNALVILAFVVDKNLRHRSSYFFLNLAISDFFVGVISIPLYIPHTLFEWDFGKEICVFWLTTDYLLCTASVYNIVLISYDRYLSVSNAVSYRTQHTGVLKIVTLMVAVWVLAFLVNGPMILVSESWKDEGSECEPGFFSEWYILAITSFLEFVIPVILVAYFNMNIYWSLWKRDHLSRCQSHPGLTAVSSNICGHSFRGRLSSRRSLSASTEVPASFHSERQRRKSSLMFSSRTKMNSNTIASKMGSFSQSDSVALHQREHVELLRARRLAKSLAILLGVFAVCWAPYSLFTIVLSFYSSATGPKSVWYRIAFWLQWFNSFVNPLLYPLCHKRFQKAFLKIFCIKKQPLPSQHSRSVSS

[3] = tested on: NK cells activated by K562 cells; test: IFN-γ, TNF-α and CD107a expression by NK cells activated by K562 cells (flow cytometry); assay type: cell-based; settings: treated 1 hour, then activated by K562 cells
[4] = tested on: HIV or LPS stimulated monocytes; test: IFN-γ mRNA in monocytes stimulated with HIV or LPS (RT-qPCR); assay type: cell-based; settings: RT-qPCR normalized to RPL13A
Protocol: Data shown are representative of two independent experiments.
Monocytes were pre-incubated with clobenpropit (CB), IT1t or chloroquine before being activated by HIV and LPS. IFN-γ levels were measured by RT-qPCR and normalized to RPL13A mRNA expression.

[5] = tested on: collagen-induced arthritis in DBA1/J mice; test: Therapeutic collagen-induced arthritis model in DBA1/J mice; assay type: in vivo, mouse; settings: for average AI (Arthritic Index): maximum AI=16
Protocol: 80 DBA1/J mice (male, 7-8 weeks) was received and placed in quarantine for 3 days with daily inspections. Ear tag mice for individual identification.
Individual mouse weights were recorded. Hind paw thickness were recorded by digital caliper. 80 mice subcutaneous were injected with collagen/CFA emulsion (0.05 ml/mouse; 100 μg/mouse collagens in CFA) using a 1 ml syringe fitted with a 25G needle. Mice returned to cages.
80 mice were boosted with collagen/ICFA emulsion. Then their individual weights were recorded.
Mice were scored for signs of arthritis:
7) Calculate Arthritic Index (AI) by addition of individual paw scores and record.
Mice with an AI score within a range of 2-6 were selected for assignment to groups for therapeutic dosing as in Table 4.
Begin intraperitoneal (IP) dosing once daily (QD) according to Table 4.
The compounds clobenpropit (CB) and IT1t were tested. CB and IT1t were stored at 4° C. […] These compounds were doses 7 days per week (Saturday and Sunday included) daily for 14 days.
Mice were weighed, scored for signs or arthritis, and hind paw thickness is measured by digital caliper three-times weekly (Monday, Wednesday and Friday). Any adverse reactions to treatment were recorded.
Termination: AI score were recorded for each limb. The paw thickness of the hind limbs is measured with digital caliper. Mice were anesthetized and exsanguinated into pre-chilled EDTA-tubes.
2) Plasma was assayed by ELISA for IL-1β, IL-6, TRAIL. Then, all limbs were collected.

CXCR4 [6] = target: T1, CXCR4; settings: Jurkat cells, 1 mM, 4° C. for 30 min
[7] = Solubility of test compounds
pDC = test: Cytotoxicity of compounds on cultured pDC; settings: 10 μM
[8] = 10 mg/kg IP once daily, at termination
[9] = 30 mg/kg IP once daily, at termination

## NC(=NCc1ccc(Cl)cc1)SCCCc1cnc[nH]1 [Clobenpropit, clobenpropit]
[1]
  EC50: 24 ± 2 µM
HIV-stimulated pDC
  TRAIL localization to the cell membrane in HIV-stimulated pDC: significantly inhibited
CXCR4 [2]
  intracellular / extracellular CXCR4 in pDC: most of CXCR4 was detected intracellularly
H4R
  effect of H4R knock down on inhibitory activity on IFN-α, IFN-β and TRAIL productions by HIV-stimulated pDC: did not block
[3]
  IFN-γ, TNF-α and CD107a expression by NK cells: decrease
[4]
  IFN-γ expression by HIV or LPS stimulated monocytes: inhibit
[5]; 3 mg/kg IP once daily
  reduction in terminal plasma concentration of IL-1β: 64%
  reduction in terminal plasma concentration of IL-6: 49%
  reduction in terminal plasma concentration of TRAIL: had also an effect
[5]; 3 mg/kg IP once daily, Day 28-42, at termination (Day 42)
  inhibition of disease severity: 25%
[5]; 3 mg/kg IP once daily, at termination (Day 42)
  average AI (Arthritic Index): 9.8
[5]; 10 mg/kg IP once daily
  reduction in terminal plasma concentration of IL-1β: 75%
  reduction in terminal plasma concentration of IL-6: 80%
  reduction in terminal plasma concentration of TRAIL: had also an effect
[5]; [8]
  reduction in disease severity: 66%
  average AI (Arthritic Index): 4.4
[5]; 30 mg/kg IP once daily
  reduction in terminal plasma concentration of IL-1β: 82%
  reduction in terminal plasma concentration of IL-6: 82%
  reduction in terminal plasma concentration of TRAIL: significant reduction
[5]; [9]
  reduction in disease severity: 87%
  average AI (Arthritic Index): 1.8
[5]; 3, 10 and 30 mg/kg daily intraperitoneal injection
  disease progression over the dose range: dose-dependent inhibition
CXCR4 [6]
  binding of the CXCR4 antibody 12G5 on T cells: inhibited
In vitro
  CC50: 417 ± 6 µM
[7]; PBS, aqueous buffer
  solubility: > 50 mg/mL
[7]; water
  solubility: > 50 mg/mL
pDC
  cytotoxicity on purified pDC: no cytotoxic effect
